Our source for the AC50 values is PubChem BioAssay AID743267 (Broad Institute, 2014).

The experiment deals with human bronchial epithelial cells, CFTR corrector, plate reader. Put plainly: CFTR ΔF508 corrector activity in bronchial cells, dose response, human bronchial epithelial cells, plate reader, cherry-pick, two tests (AID 743267).
Where [1] appears, read: measured here: test 2 replicate run.
[2] abbreviates: measured here: test 1 replicate run.

Where only a bound is given, the exact number is not on record here.

Turning to `CN(C[C@H](Cc1ccccc1)N(C[C@H](Cc1ccccc1)N(CCC(C)(C)C)N=O)N=O)N=O`, the AC50 (in general, the concentration giving half of the maximal activity seen) under setting [1] worked out at 47.9 µM. Under setting [1], `O=C(OCc1ccc(Br)cc1)c1cc([N+](=O)[O-])ccc1N1CCOCC1` registered an AC50 of 0.662 µM. As to `CN1c2ccc(-c3ccc(C#N)cc3)cc2[C@H]2[C@H](CCN2S(=O)(=O)c2cccc(F)c2)[C@H]1CO`, the AC50 under setting [2] came to 0.128 µM. `COc1ccccc1C(=O)NC(=S)/C=C1/N(C)c2ccccc2C1(C)C` came in with an AC50 under setting [1] greater than 50 µM. `Cc1ccc2c(C)c3ccc4ccccc4c3c[n+]2c1` gave an AC50 under setting [1] of 1.06 µM.

As to `COc1ccc(/C=C2\SC(=O)N(CCNC(=O)C3=COCCO3)C2=O)cc1`, the AC50 under setting [1] was 1.84 µM. `COc1ccc(-c2cc(=O)c3c(O)cc(O)cc3o2)cc1` gave an AC50 under setting [1] greater than 50 µM.

As to `O=c1[nH]c(/C=C/c2ccccc2F)nc2ccccc12`, the AC50 under setting [1] worked out at 2.69 µM. `C=C1SC(Nc2c(C)cc(C)cc2C)=NC12CCCCC2`: under setting [1], the AC50 turned out to be 5.37 µM.

`CC(=NNC(=S)Nc1ccc(C)cc1)c1ccccn1` returned an AC50 under setting [1] of 0.499 µM. For the molecule `Cc1ccc(N(C)S(=O)(=O)c2ccc(-c3cnc(C4CC4)o3)cc2)cc1`, the AC50 under setting [1] worked out at 1.17 µM.

Turning to `O=C(c1ccc(Br)cc1)c1cc([N+](=O)[O-])ccc1N1CCOCC1`, the AC50 under setting [1] turned out to be 1.69 µM. In turn, `CCCOc1cc(N(CC)CC)ccc1/C=C(/C#N)c1nc2ccc(C)cc2[nH]1` displayed an AC50 under setting [1] of 6.15 µM. On the same count and under the same terms, as for `Cc1cc(C(=O)N2CC=C(c3ccccc3)CC2)c2ccccc2n1`, the figure is 0.66 µM; as for `CC(C)Oc1ncnc2c1[nH]c1ccccc12`, 9.38 µM; as for `COc1ccc(S(=O)(=O)Cc2ccc(C(=O)N3CCN(c4cccc(C)c4)C(C)C3)o2)cc1` (centres undefined), 3.68 µM.

In the case of `Cc1ccc(-c2csc(Nc3ccccn3)n2)cc1`, under setting [1], the AC50 came out at 26.4 µM. Molecule `N#Cc1nc(NCC(F)F)nc(Nc2cc(F)cc(F)c2)n1` yielded an AC50 under setting [1] of 16 µM. Molecule `COc1ccc(NC(=O)C2(C)Cc3c(-c4cccc(NC(C)=O)c4)ccnc3O2)cc1` (centres undefined) displayed an AC50 under setting [1] of 4.58 µM.

Molecule `Cc1ccc2nc(-c3ccc4c(c3)OCCO4)cn2c1` came in with an AC50 under setting [1] of 2.33 µM.

As for `COc1cc(-c2nccc3cc4c(cc23)OCO4)cc(OC)c1OC`, the AC50 under setting [1] worked out at 6.02 µM. Under setting [2], `COc1ccc(-c2ccc3c(c2)[C@H]2[C@H](CCN2S(=O)(=O)c2ccc(OC)cc2)[C@@H](CO)N3)cc1` had an AC50 of 7.37 µM. Under setting [1], `COc1ccc(O)c(/C=N/NC(=O)c2ccc(N3CCCC3=O)cc2)c1` displayed an AC50 of 8.14 µM. In the case of `Nc1c2ccccc2nc2ccccc12`, under setting [1], the AC50 came out at 2.62 µM. In the case of `CN1c2ccc(-c3ccc(C#N)cc3)cc2[C@H]2[C@H](CCN2S(=O)(=O)c2cccc(F)c2)[C@@H]1CO`, the AC50 under setting [2] amounted to 16 µM. Under setting [1], `COC(=O)c1cc2c(=O)c3ccccc3oc2nc1/C=C/N(C)C` came in with an AC50 of 0.984 µM.

`Cc1cccc(NC(=O)CN2CCN(C(=O)CN3C(=O)NC4(CC(C)CC(C)(C)C4)C3=O)CC2)c1C` (centres undefined) yielded an AC50 under setting [1] of 2.69 µM. On the same count and under the same terms, as for `CC(C)(C)c1ccc(OCC(=O)Nc2ccc3c4c(cccc24)C(=O)NC3=O)cc1`, the figure is 18.4 µM; as for `COc1ccc(-c2cc(C(F)F)n3ncc(C(=O)N4CCc5ccccc54)c3n2)cc1`, 16.1 µM. `COc1ccc(-c2oc3ccc(-c4cc(OC)c(OC)c(OC)c4)cc3c2C#Cc2ccccn2)cc1`: the AC50 under setting [1] was 26.7 µM. As for `COc1ccc(Nc2nc3cc(-c4sccc4C)sc3c(=O)n2C)cc1OC`, under setting [1], the AC50 stood at 2.15 µM.

Under setting [1], `C[C@@H](N)Cc1cnc[nH]1` displayed an AC50 of 20.1 µM. Turning to `CN1c2ccc(-c3ccc(F)cc3)cc2[C@H]2[C@H](CCN2S(=O)(=O)c2cccc(F)c2)[C@@H]1CO`, the AC50 under setting [2] is 7.66 µM. For `Cc1ccc(S(=O)(=O)NCc2ccccc2)cc1C(=O)N1CC(C)CC(C)C1` (centres undefined), the AC50 under setting [1] is greater than 50 µM.
